# From patent US20150121570A1, “GENE […] DROUGHT STRESS TOLERANCE AND T[…] WITH THE SAME” (priority 2013, published 2015)
# Experiments:
# Assay type in all cases: in vivo, Arabidopsis thaliana
# [1] = system: stomata of mature leaves of wild-type and atamdr mutant plants; assay: ABA-induced stomatal closure (stomatal aperture measurement); conditions: 10 μm ABA for 2 h; for stomatal aperture (the ratio of width to length): 4-week-old leaves
# Experimental: (§1) FIGS. 4a to 4c represent stomatal aperture and H2O2 production of wild-type, atamdr plants in response to different concentrations of ABA. […] Light-grown, 4-week-old mature leaves of wild-type and atamdr plants were incubated in stomatal opening solution for 2 h and transferred to solutions containing the 10 μM ABA for 2 h. Stomata on the abaxial surface were observed by light microscopy. […] Leaves from wild-type, atamdr plants were treated with 0 or 100 μM ABA for 2 h and transferred to 100 μg/mL DAB (3,3′-diaminobenzidine-4HCl) solution overnight. The presence and level of H2O2 in the leaves were visualized as a dark brown color.
# Mature leaves of light-grown, 4-week-old wild-type and atamdr mutant plants were used for the observation of mature stomata. Detached leaves were incubated in stomatal opening solution (10 mM MES-KOH, […] CaCl2, 10 mM KCl) for 2 h and then transferred to stomatal opening solution supplemented with 0 or 10 μM ABA for 2 h. Subsequently, epidermal strips were mounted on glass slides and observed with a light microscope.
# Mature leaves of light-grown, 4-week-old wild-type and atamdr mutant plants were detached and incubated in stomatal opening solution and then transferred to stomatal opening solution supplemented with various concentrations of ABA (0 and 10 μM) for 2 h. […] Stomatal aperture of wild-type plants treated with 10 μm ABA was approximately 0.09 which was 2-fold closed than that of mutant, while stomatal aperture of atamdr mutant treated with 10 μm ABA was approximately 0.175, which was 1.94-fold compared to that of wild-type plants.
# [2] = system: mature leaves of wild-type and atamdr plants; assay: ABA-induced H2O2 production analyzed by DAB staining; conditions: 0 or 100 μM ABA
# Experimental: as §1
# To investigate the accumulation of H2O2, light-grown, 4-week-old mature leaves of wild-type (WT), atamdr plants were incubated in stomatal opening solution for 2 h and treated with 0 or 100 μM ABA. Leaves were transferred to 100 μg/mL DAB (3,3′-diaminobenzidine-4HCl) solution overnight, and washed and fixed by 96% ethanol. Leaves were observed after complete chlorosis (Luis David Maldonado-Bonilla et al.; Eur J Plant Pathol. 121:439449, 2008).
# To investigate the accumulation of H2O2, light-grown, 4-week-old mature leaves of wild-type and atamdr plants were treated with 0 or 100 μM ABA, and stained with 100 ng/mL DAB (3,3′-diaminobenzidine-4HCl) solution in dark.
# AtAIRP2 gene expression = assay: Gene expression after ABA treatment by RT-PCR; conditions: atamdr mutant, 300 μM ABA hormone, 1 hour and 3 hours
# Experimental: FIGS. 2a to 2d represent the expression patterns of AtAMDR in response to various abiotic stress conditions. Total RNA was prepared from light-grown, 7-day-old Arabidopsis seedlings, which had been treated with drought (FIG. 2a), cold (FIG. 2b), high salinity (300 mM NaCl) (FIG. 2c) or 100 μM ABA (FIG. 2d). Induction patterns of AtAMDR were investigated by RT-PCR. RD29A was used as representative control gene for drought, cold and salt stress, and Rab18 was used as control gene for ABA.
# Total RNA was prepared from 7-day-old Arabidopsis seedlings, which had been treated with drought (1-2 h), cold (4° C. for 6-12 h), high salinity (300 mM NaCl for 1-3 h) or 100 μM ABA (1-3 h). Induction patterns of AtAMDR were investigated by RT-PCR.
# In order to determine expressions of the AtAMDR gene to drought stress, the wild type Arabidopsis thaliana seedlings which were grown on medium for 2 weeks were exposed in the air, and sampled after 1 hour and 2 hours. In order to determine expressions of the AtAMDR gene to salt stress, the wild type Arabidopsis thaliana seedlings which were grown on medium for 2 weeks were treated with 300 mM sodium chloride, and sampled after 1 hour and 3 hours. […]
# The AtAIRP2 gene expressions in various abiotic stresses were analyzed by RT-PCR. […]
compound,measurement,setting,value
"CC1=CC(=O)CC(C)(C)[C@@]1(O)/C=C/C(C)=C\C(=O)O [ABA, abscisic acid]",stomatal aperture of atamdr mutant compared to that of wild-type plants,[1],1.94 fold
same,stomatal aperture (the ratio of width to length),[1]; atamdr mutant,approximately 0.175
same,stomatal aperture (the ratio of width to length),[1]; wild-type plants,approximately 0.09
same,accumulation of H2O2,[2]; atamdr leaves,significantly delayed
same,accumulation of H2O2,[2]; wild-type leaves,drastically arisen
same,AtAIRP2 gene expression,AtAIRP2 gene expression,not affected
